Measured values published in patent US20060142247A1, “Tricyclic heterocycles” (priority 2004, published 2006).

Target: T1, Aurora A (Homo sapiens, UniProt O14965)
T1 construct: C-terminally Histidine4 (His4)-tagged Aurora A full-length protein; His4 (C)
T1 sequence (O14965 1-403): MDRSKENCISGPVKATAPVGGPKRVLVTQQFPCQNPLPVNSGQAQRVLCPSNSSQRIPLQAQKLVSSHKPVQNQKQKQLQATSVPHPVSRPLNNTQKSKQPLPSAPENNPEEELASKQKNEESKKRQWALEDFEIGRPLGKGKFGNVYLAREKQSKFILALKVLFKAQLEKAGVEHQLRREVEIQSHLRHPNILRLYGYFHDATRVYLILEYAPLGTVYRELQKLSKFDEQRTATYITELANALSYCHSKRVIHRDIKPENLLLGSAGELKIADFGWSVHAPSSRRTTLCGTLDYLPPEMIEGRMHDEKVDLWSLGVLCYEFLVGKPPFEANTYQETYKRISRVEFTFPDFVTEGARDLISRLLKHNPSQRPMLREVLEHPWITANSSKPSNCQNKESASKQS
Experiment: IC50 determination for inhibitors of Aurora A (96 MTP-ELISA)
Format: biochemical
Conditions: His4-tagged full-length Aurora A 250 ng/ml, PKB-GSK2 200 nM, ATP 4 μM, 90 min room temperature, read-out: IC50 Aurora A kinase inhibition
Procedure, shortened: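 Full-length C-terminally His4-tagged Aurora A (250 ng/ml) phosphorylates biotinylated GSK3-alpha peptide (200 nM) with 4 μM ATP in pH 7.8 Tris/MgCl2/DTT buffer, 1% DMSO, 90 min at room temperature, EDTA stop. Phospho-Ser21 antibody plus HRP anti-mouse, ABTS absorbance 405/492 nm; IC50 from 8-point curve fit.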

Row | SMILES | IC50 [nM]
1 | CC1(C)C(=O)N(CC(=O)NO)c2cc3[nH]c(-c4n[nH]c5ccccc45)nc3cc21 [Example 49, N-Hydroxy-2-[2-(1H-indazol-3-yl)-7,7-dimethyl-6-oxo-6,7-dihydro-3H-imidazo[4,5-f]indol-5-yl]-acetamide] | 1 to 100
2 | CC1(C)C(=O)N(CC(N)=O)c2cc3[nH]c(-c4n[nH]c5ccccc45)nc3cc21 [Example 37, 2-[2-(1H-Indazol-3-yl)-7,7-dimethyl-6-oxo-6,7-dihydro-3H-imidazo[4,5-f]indol-5-yl]-acetamide] | 1 to 100
3 | CC1(C)C(=O)N(CC#N)c2cc3[nH]c(-c4n[nH]c5ccccc45)nc3cc21 [Example 24, [2-(1H-Indazol-3-yl)-7,7-dimethyl-6-oxo-6,7-dihydro-3H-imidazo[4,5-f]indol-5-yl]-acetonitrile] | 1 to 100
4 | CC1C(=O)Nc2cc3[nH]c(-c4n[nH]c5ccccc45)nc3cc21 (centres unmarked) [Example 11, 2-(1H-Indazol-3-yl)-7-methyl-5,7-dihydro-3H-imidazo[4,5-f]indol-6-one] | 100 to 250
5 | CCN1C(=O)C(C)(C)c2cc3nc(-c4n[nH]c5ccccc45)[nH]c3cc21 [Example 3, 5-Ethyl-2-(1H-indazol-3-yl)-7,7-dimethyl-5,7-dihydro-3H-imidazo[4,5-f]indol-6-one] | 1 to 100
